{
  "source": "patent US12115176B2",
  "about": "“Methods and compositions relating to ClbP inhibition” (PRESIDENT AND FELLOWS OF HARVARD COLLEGE, priority 2021, dated 2024)",
  "key": {"purified ClbP": {"target": "purified ClbP (Escherichia coli, UniProt Q0P7K6)", "assay": "ClbP fluorescence activity assay (in vitro)", "type": "biochemical, Escherichia coli CFT073", "excerpt": "Constructs and protein purification for in vitro assays. ClbP constructs described in this publication were derived from a previously described plasmid containing the Escherichia coli CFT073 ClbP sequence (GenBank ID: NP_754344.1) inserted between the NdeI and XhoI restriction sites of pET29b (Addgene plasmid #48244).^14 All in vitro experiments used a construct bearing a C-terminal 10×His tag. This longer polyhistidine-tag was obtained by extension of the previously described 6×His tag through site-directed mutagenesis. All site-directed mutations were introduced using the Quikchange mutagenesis protocol (Stratagene) and confirmed by Sanger DNA sequencing of the whole open reading frame. Plasmids were transformed into chemically competent C41(DE3) (Lucigen) cells and proteins were isolated as previously described.^34\nClbP fluorescence activity assay (in vitro). Assays were performed in a buffer containing 50 mM Tris, 200 mM NaCl, 0.02% w/v DDM at pH 8.0 with 25 nM purified ClbP and 25 μM fluorogenic substrate in a total volume of 20 μL.^34 Purified ClbP was defrosted on ice from stocks stored at −80° C. Stocks were diluted to 50 nM enzyme in assay buffer in the wells of a black, flat-bottom 384-well plate and the appropriate inhibitor in DMSO or DMSO was added to a final concentration of 1%. For experiments testing different inhibitor concentrations, reactions were allowed to sit for 1 hour at room temperature. For experiments testing different preincubation times, the inhibitor in DMSO was added to each reaction X minutes before initiating the reaction, where X is the time indicated on the x-axis for that sample. For experiments to test whether hydrolysis of the boronic ester was rate-limiting, the inhibitor was added to buffer with no enzyme present and allowed to sit at room temperature for the time indicated before adding the enzyme. In all cases, reactions were initiated by the addition of 10 μL, of buffer containing the 50 μM fluorogenic substrate to achieve a final concentration of 25 μM and pipetting once with a multichannel pipette to mix. Reaction progress was monitored in a plate reader (Bio-Tek Synergy HTX multimode plate reader) with an excitation filter of 360/40 nm and an emission filter of 440/20 nm. “% activity” was determined based on the measured relative fluorescence units (RFU) of each condition after 1 hour using the following formula: […]"}, "HeLa cells": {"tested_on": "HeLa cells", "assay": "HeLa cell survival assay", "type": "cell-based, human", "settings": "all concentrations tested", "description": "HeLa cells were maintained as described in the General Tissue Culture Methods section. After trypsinization and counting, cells were distributed in to the wells of a 96-well plate with media containing the indicated concentration of the synthetic compound and 1% DMSO (or DMSO alone) at 5000 cells per well. After 20 hours, cell viability was determined using the CellTiter-Glo® 3D Cell Viability Assay kit (Promega) following the manufacturer's instructions and measuring luminescence on a Bio-Tek Synergy HTX™ multimode plate reader."}, "[1]": {"tested_on": "Penicillin Binding Proteins (PBPs)", "assay": "Gel-based ABPP with BOCILLIN-FL probe", "excerpt": "To further explore the specificity of our inhibitors, another ABPP assay was used in which the broad-spectrum FP probe was replaced with a specific probe, BOCILLIN-FL, which targets penicillin binding proteins (PBPs) using a β-lactam warhead. This probe was chosen because of ClbP's homology to AmpC β-lactamases. Since PBPs are targeted by β-lactams, it was reasoned that the similarity of their binding pockets would mean a greater chance of identifying a secondary target among this family of enzymes."}, "[2]": {"tested_on": "FANCD2 in HeLa cell extracts", "assay": "Western blot for FANCD2", "type": "cell-based, human", "settings": "1 μM 3", "description": "Western Blot for FANCD2. Infections were carried out as described above. For conditions which involved other small molecules, no bacteria were introduced during the infection and cells were treated with either 0.5 μg/mL mitomycin C (MMC) or 7.5 μg/mL cisplatin under the same conditions for 4 hours. 20 hours after infection, cells were lysed directly in the culture wells (Lysis buffer: 50 mM Tris, (pH 8.0), 150 mM NaCl, 1% Triton X-100, 0.5% Sodium deoxycholate, 0.05% sodium dodecylsulfate, 1 mM MgSO4, SIGMAFAST Protease inhibitor mix, 100 U/mL benzonase (Millipore-Sigma). Lysates were then spun down at 16,000×g to remove particulates and the supernatant was mixed 1:1 with 2X Laemmli sample buffer (Bio-Rad) containing 50 mg/mL dithiothreitol (DTT). Samples were then heated at 70° C. for 10 minutes and run on an SDS-PAGE gel (3-8% Tris-Acetate Novex gel, Invitrogen) at 150 V for 1.5 hours at 4° C. Bands were then transferred to PVDF membranes (100 V, 1 hour at 4° C.) and blocked with 10% skim milk powder in TBST buffer at 4° C. overnight. Blots were probed sequentially with either mouse anti-actin (1.5 μg/mL) or mouse anti-FANCD2 (0.1 μg/mL) primary antibodies (Thermo Fisher Scientific, Catalog #MA511869 and MA123347), followed by a peroxidase-conjugated goat anti-mouse secondary antibody (Jackson ImmunoResearch product 115-035-003, 0.08 μg/mL). Each probing step was conducted for 90 minutes at room temperature n 2.5% skim milk powder in TBST. Before imaging, blots were washed 3×15 minutes each in TBST […]. Blots were imaged using the SuperSignal™ West Pico PLUS Chemiluminescent Substrate (Thermo Fisher Scientific) kit following the manufacturer's instructions and imaged using an Azure Biosystems c300 imager."}, "[3]": {"tested_on": "purified plasmid DNA incubated with pks+ E. coli", "assay": "Plasmid DNA crosslinking, denaturing gel electrophoresis", "description": "In addition to blocking the metabolic indicators of colibactin biosynthesis, it was also assessed whether 3 could inhibit the genotoxic effects of colibactin on human cells at physiologically accessible concentrations. A previously described infection assay with HeLa cells and pks+E. coli which was modified to include a 1-hour preincubation of the inhibitor with the E. coli as well as inclusion of the inhibitor in the infection medium was used. […] Treatment with 3 was able to completely block this effect at concentrations as low as 5 nM (FIG. 4). It was also confirmed that 3 is not cytotoxic to human cell lines at concentrations up to 10 μM. […] In order to directly assess the impacts of 3 on colibactin's DNA crosslinking activity, purified plasmid DNA was incubated with pks^+ E. coli, then subjected to gel electrophoresis under denaturing conditions."}, "Enterococcus faecalis": {"tested_on": "Enterococcus faecalis", "assay": "Bacterial MIC assay (broth dilution)", "type": "cell-based", "settings": "15 h, read-out: MICs by compound"}},
  "note": "Entries after “also recorded” stand apart in the source; their conditions may differ.",
  "data": [
    {"smiles": "CC1(C)OB([C@@H](CC(N)=O)NC(=O)CCCc2ccccc2)OC1(C)C", "note": "[Compound 3]", "values": [
      {"measurement": "IC50", "setting": "purified ClbP", "value": 28, "unit": "nM"},
      {"measurement": "speed of reaching maximum potency, in words", "setting": "purified ClbP; slow-binding inhibition assay, 100 nM", "value": "achieved their maximum potency faster than compound 4"},
      {"measurement": "concentration without cytotoxicity to human cell lines", "setting": "HeLa cells", "value": "> 10", "unit": "µM"},
      {"measurement": "competitive binding to BOCILLIN-FL labeled PBPs", "setting": "[1]; B. cereus ATCC14579 lysate", "value": "none of these PBPs showed any binding; also recorded: no competitive binding"},
      {"measurement": "competitive binding to BOCILLIN-FL labeled PBPs", "setting": "[1]; E. coli NC101 lysate", "value": "none of these PBPs showed any binding; also recorded: no competitive binding"},
      {"measurement": "FANCD2 ubiquitination in colibactin-exposed cells", "setting": "[2]; HeLa cells exposed to pks+ E. coli (NC101)", "value": "prevented this response; also recorded: prevents"},
      {"measurement": "effect of 3 on FANCD2-Ub response to MMC or cisplatin", "setting": "[2]; HeLa cells", "value": "had no impact on the response to MMC or cisplatin"},
      {"measurement": "DNA crosslinking activity", "setting": "[3]", "value": "can suppress DNA crosslinking activity"},
      {"measurement": "MIC", "setting": "Enterococcus faecalis", "value": "> 200", "unit": "µM"}
    ]}
  ]
}
